According to US11207312B2, “Metallo-beta-lactamase inhibitors and methods of use thereof” (priority 2017, dated 2021):

Key:
VIM-2 = VIM-2 (Escherichia coli, UniProt Q5U7L7); assay: biochemical; conditions: CCF2-FA fluorescence assay; read-out: VIM2 IC50
VIM-1 = VIM-1 (Pseudomonas aeruginosa (strain ATCC 15692 / DSM 22644 / CIP 104116 / JCM 14847 / LMG 12228 / 1C / PRS 101 / PAO1), UniProt A0A0F7KYQ8); assay: biochemical; conditions: CCF2-FA fluorescence assay, 2 hours at 25° C.; read-out: VIM1 IC50
Procedure, shortened: (§1)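 Buffer 100 mM KH2PO4 pH 7, 0.005% Tween-20, 10 μM ZnSO4. NDM-1 1 pM, IMP-1 2 pM, VIM-1 30 pM final; CCF2-FA 1.25 μM. Cpd 20–0.00063 μM, 2 h, 25° C. Ex 405/Em 460 nm; IC50 via 4-parameter curve.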

IMP-1 = IMP-1 (Serratia marcescens, UniProt P52699); assay: biochemical; conditions: CCF2-FA fluorescence assay, 2 hours at 25° C.; read-out: IMP1 IC50
Procedure, shortened: as §1

NDM-1 = NDM-1 (Klebsiella pneumoniae, UniProt C7C422); assay: biochemical; format: biochemical; conditions: CCF2-FA fluorescence assay, 2 hours at 25° C.
Procedure, shortened: as §1

[1] = test system: P. aeruginosa MB9798 (efflux+, IMP-1 plasmid); conditions: for MB9798 MITC95 P. aeruginosa uM Efflux WT: efflux + (MB9798) strain, imipenem at 2 μg/mL, in the presence of a class A, C, D serine β-lactamase inhibitor closely related to relebactam; for Efflux ratio: fold difference between efflux+ (MB9798) and efflux− (MB9799) strains
Procedure, shortened: (§2)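 Isogenic P. aeruginosa PAO1 strains (efflux+ and multiple-efflux-pump-disrupted) carrying plasmid IMP-1, with inducible AmpC, tested by broth microdilution. Imipenem and/or ceftazidime fixed, usually at CLSI breakpoint, plus fixed class A/C β-lactamase inhibitor; titrated MBL inhibitor concentration restoring susceptibility recorded and compared between strains as efflux fold difference.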

[2] = test system: Serratia marcescens expressing IMP-1 (CL5741); format: cell-based; conditions: with imipenem 1 μg/ml; 95% inhibition of bacterial growth
Procedure, shortened: (§3)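 Read-out is absorbance after 22–24 h at 35 °C, with MITC95 taken as the lowest inhibitor concentration that, alongside imipenem at 1 μg/ml, suppresses 95% of bacterial growth. Inocula came from saline-suspended colonies diluted 1:100 into 1.1× CAMHB.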

[3] = test system: Klebsiella pneumoniae expressing VIM-1 (IHMA599644); format: cell-based; conditions: with imipenem 1 μg/ml; 95% inhibition of bacterial growth
Procedure, shortened: as §3

[4] = test system: Escherichia coli expressing NDM-1 (CLB30016); format: cell-based; conditions: with imipenem 1 μg/ml; 95% inhibition of bacterial growth
Procedure, shortened: as §3

[5] = test system: P. aeruginosa MB9799 (efflux-, IMP-1 plasmid); format: cell-based, Pseudomonas aeruginosa; conditions: efflux − (MB9799) strain; imipenem at 2 μg/mL; in the presence of a class A, C, D serine β-lactamase inhibitor closely related to relebactam
Procedure, shortened: as §2

Sequence of IMP-1 (P52699 whole entry, looked up, species assumed): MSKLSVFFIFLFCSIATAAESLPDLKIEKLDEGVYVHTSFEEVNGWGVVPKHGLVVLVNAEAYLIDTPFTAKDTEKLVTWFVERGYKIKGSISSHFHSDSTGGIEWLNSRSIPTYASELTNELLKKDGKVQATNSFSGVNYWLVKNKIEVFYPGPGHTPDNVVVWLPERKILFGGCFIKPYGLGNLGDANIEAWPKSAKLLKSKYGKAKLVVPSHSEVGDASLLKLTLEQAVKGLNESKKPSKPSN
Sequence of NDM-1 (C7C422 whole entry, looked up, species assumed): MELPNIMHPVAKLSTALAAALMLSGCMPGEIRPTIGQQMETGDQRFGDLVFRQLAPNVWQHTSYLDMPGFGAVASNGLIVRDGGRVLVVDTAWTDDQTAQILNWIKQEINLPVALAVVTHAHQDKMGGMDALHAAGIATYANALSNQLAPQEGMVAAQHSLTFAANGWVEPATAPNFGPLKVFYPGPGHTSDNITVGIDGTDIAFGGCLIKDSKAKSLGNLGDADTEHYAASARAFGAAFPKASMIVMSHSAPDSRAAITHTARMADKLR

SMILES	IC50 (VIM-2) [nM]	IC50 (VIM-1) [nM]	IC50 (IMP-1) [nM]	IC50 (NDM-1) [nM]	MB9798 MITC95 P. aeruginosa uM Efflux WT [1] [µM]	Efflux ratio [1]	CL5741 S. marcescens MITC95 IMP [2] [µM]	IHMA599644 K. pneumoniae MITC95 VIM [3] [µM]	CLB30016 E. coli MITC95 NDM [4] [µM]	MB9799 MITC95 P. aeruginosa uM Efflux Mutant [5] [µM]
CS(=O)(=O)CCN1CCN(c2ccc(S(=O)(=O)NC[C@H](O)CN)c(S(N)(=O)=O)c2-c2nn[nH]n2)CC1 [Example 117, (R)—N1-(3-amino-2-hydroxypropyl)-4-(4-(2-(methylsulfonyl)ethyl)piperazin-1-yl)-3-(2H-tetrazol-5-yl)benzene-1,2-disulfonamide]	2.28	2.58	0.55	0.94	12.50	4.00	0.78	6.25	3.13	3.13
NC[C@H](N)CNS(=O)(=O)c1ccc(N2CCN(CCO)CC2)c(-c2nnn[nH]2)c1S(N)(=O)=O [Example 49, (S)-N1-(2,3-diaminopropyl)-4-(4-(2-hydroxyethyl)piper-azin-1-yl)-3-(1H-tetrazol-5-yl)benzene-1,2-disulfonamide]	20.2	13.6	9.13	5.3	1.56	1.00	0.20	1.56	0.20	1.56
NC(=O)C1CCN(c2ccc(S(=O)(=O)N[C@@H]3CCNC3)c(S(N)(=O)=O)c2-c2nnn[nH]2)CC1 [Example 94, 1-{4-[(3R)-pyrrolidin-3-ylsulfamoyl]-3-sulfamoyl-2-(1H-tetrazol-5-yl)phenyl}piperidine-4-carboxamide]	1.18	0.27	0.5	0.18	3.13	1.00	6.25	6.25	3.13	3.13
NS(=O)(=O)c1c(S(=O)(=O)N[C@@H]2CCNC2)ccc(N2CCN(CCO)CC2)c1-c1nn[nH]n1 [Example 162, (R)-4-(4-(2-hydroxyethyl)piperazin-1-yl)-N1-(pyrrolidin-3-yl)-3-(2H-tetrazol-5-yl)benzene-1,2-disulfonamide]	6.33	2.45	2.17	1.2	2.34		0.20	1.95	0.29	1.17
CN(CCO)CCN(C)c1ccc(S(=O)(=O)NC[C@H](O)CN)c(S(N)(=O)=O)c1-c1nn[nH]n1 [Example 136, (R)—N1-(3-amino-2-hydroxypropyl)-4-((2-((2-hydroxyethyl)(methyl)amino)ethyl)(methyl)amino)-3-(2H-tetrazol-5-yl)benzene-1,2-disulfonamide]	27.4	14.2	200	200	50.00	4.00	12.50	1.56	3.13	12.50
NCCNS(=O)(=O)c1ccc(N2CCN(CCCO)CC2)c(-c2nnn[nH]2)c1S(N)(=O)=O [Example 41, N1-(2-aminoethyl)-4-(4-(3-hydroxypropyl)piperazin-1-yl)-3-(1H-tetrazol-5-yl)benzene-1,2-disulfonamide]	14.8	11.5	6.04	5.98	1.56	4.00	0.10	1.56	0.10	0.39
NS(=O)(=O)c1c(S(=O)(=O)N[C@@H]2CCNC2)ccc(N2CC[C@H](CO)C2)c1-c1nnn[nH]1 [Example 96, 4-[(3S)-3-(hydroxymethyl)pyrrolidin-1-yl]-N1-[(3R)-pyrrolidin-3-yl]-3-(1H-tetrazol-5-yl)benzene-1,2-disulfonamide]	1.02	0.53	0.98	1.21	3.13	2.00	1.56	6.25	3.13	1.56
NC[C@@H](O)CNS(=O)(=O)c1ccc(N2CCC[C@H](CN)C2)c(-c2nnn[nH]2)c1S(N)(=O)=O [Example 39, N1-((R)-3-amino-2-hydroxypropyl)-4-((R)-3-(aminomethyl)piperidin-1-yl)-3-(1H-tetrazol-5-yl)benzene-1,2-disulfonamide]	11.6	1.71	44.6	50.4	3.13	2.00	0.78	1.56	1.56	1.56
NCCNS(=O)(=O)C1CCN(c2ccc(S(=O)(=O)NC[C@H](O)CN)c(S(N)(=O)=O)c2-c2nn[nH]n2)CC1 [Example 131, (R)-N1-(3-amino-2-hydroxypropyl)-4-(4-(N-(2-aminoethyl)sulfamoyl)piperidin-1-yl)-3-(2H-tetrazol-5-yl)benzene-1,2-disulfonamide]	1.05	0.11	0.87	0.79	0.78	1.00	0.78	1.56	0.39	0.78
NCC1=CCN(c2ccc(S(=O)(=O)NC[C@H](O)CN)c(S(N)(=O)=O)c2-c2nn[nH]n2)CC1 [Example 175, (R)-N1-(3-amino-2-hydroxypropyl)-4-(4-(aminomethyl)-5,6-dihydropyridin-1(2H)-yl)-3-(2H-tetrazol-5-yl)benzene-1,2-disulfonamide]	4.18	0.24	3.66	2.55	1.56	2.00	0.78	1.56	0.39	0.78
NCC1CCN(c2ccc(S(=O)(=O)N[C@@H](CN)CO)c(S(N)(=O)=O)c2-c2nn[nH]n2)CC1 [Example 189, (S)-N1-(1-amino-3-hydroxypropan-2-yl)-4-(4-(aminomethyl)piperidin-1-yl)-3-(2H-tetrazol-5-yl)benzene-1,2-disulfonamide]	2.31	0.06	0.77	0.3	0.78	2.00	0.78	0.78	0.39	0.39
